Assay results taken from patent US10952436B2, “Microbiocidal quinoline (thio)carboxamide derivatives” (SYNGENTA PARTICIPATIONS AG, priority 2017, dated 2021).

How the values were obtained:
[1] = test system: Magnaporthe grisea (Pyricularia oryzae); experiment: microbe, parasite or virus in culture; format: cell-based; details: read-out: control of Magnaporthe grisea
Fusarium culmorum [2] = experiment: microbe, parasite or virus in culture; format: cell-based; details: read-out: control of Fusarium culmorum
[3] = test system: Botryotinia fuckeliana (Botrytis cinerea); experiment: Botryotinia fuckeliana (Botrytis cinerea)/Liquid Culture (Gray Mould); format: cell-based; details: 200 ppm, liquid culture, compared to untreated control, 3-4 days after application, read-out: control of Botryotinia fuckeliana
Sclerotinia sclerotiorum = experiment: Sclerotinia sclerotiorum/Liquid Culture (Cottony Rot); details: read-out: control of Sclerotinia sclerotiorum
Experimental: Mycelia fragments of a newly grown liquid culture of the fungus are directly mixed into nutrient broth (Vogels broth). After placing a (DMSO) solution of test compound into a microtiter plate (96-well format) the nutrient broth containing the fungal material is added. The test plates are incubated at 24° C. and the inhibition of growth is determined photometrically 3-4 days after application.

Fusarium culmorum [4] = experiment: whole plant or invertebrate; format: in vivo; details: in Triticum aestivum, read-out: control of Fusarium culmorum
[5] = test system: Glomerella lagenarium (Colletotrichum lagenarium); experiment: Glomerella lagenarium (Colletotrichum lagenarium)/Liquid Culture (Anthracnose); format: cell-based; details: Colletotrichum orbiculare; 200 ppm; liquid culture, compared to untreated control, 3-4 days after application; read-out: control of Glomerella lagenarium
[6] = test system: Monographella nivalis (Microdochium nivale); experiment: Monographella nivalis (Microdochium nivale)/Liquid Culture (Foot Rot Cereals); format: cell-based; details: 200 ppm, liquid culture, compared to untreated control, 4-5 days after application, read-out: control of Monographella nivalis

Structure (SMILES)	inhibition of growth at 200 ppm [1] [%]	inhibition of growth at 200 ppm (Fusarium culmorum [2]) [%]	inhibition of growth at 200 ppm [3] [%]	inhibition of growth at 20 ppm (Sclerotinia sclerotiorum) [%]	melting point [°C]	pest or weed control at 200 ppm (Fusarium culmorum [4]) [%]	inhibition of growth at 200 ppm [5] [%]	inhibition of growth at 200 ppm [6] [%]
Cc1nc2c(F)cccc2cc1NC(=O)C(C)(Cc1ccccc1)CC(F)(F)F (stereo not drawn) [Compound E-47, 2-benzyl-4,4,4-trifluoro-N-(8-fluoro-2-methyl-3-quinolyl)-2-methyl-butanamide]	≥ 80	≥ 80	≥ 80	≥ 80	130 to 132	≥ 80	≥ 80	–
CC(Cc1ccccc1)(CC(F)(F)F)C(=O)Nc1cnc2ccccc2c1 (stereo not drawn) [Compound E-81, 2-benzyl-4,4,4-trifluoro-2-methyl-N-(3-quinolyl)butanamide]	≥ 80	≥ 80	≥ 80	≥ 80	–	≥ 80	≥ 80	–
C=C(C)C[C@@](C)(Cc1ccccc1)C(=O)Nc1cnc2c(F)cccc2c1C [Compound F-5, (2S)-2-benzyl-N-(8-fluoro-4-methyl-3-quinolyl)-2,4-dimethyl-pent-4-enamide]	≥ 80	≥ 80	≥ 80	≥ 80	–	–	≥ 80	≥ 80
CC(Cc1ccccc1)(CC(F)(F)F)C(=O)Nc1cnc2c(Cl)cccc2c1 (stereo not drawn) [Compound E-51, 2-benzyl-N-(8-chloro-3-quinolyl)-4,4,4-trifluoro-2-methyl-butanamide]	≥ 80	≥ 80	≥ 80	≥ 80	104 to 106	≥ 80	≥ 80	≥ 80
Cc1c(NC(=O)C(C)(Cc2ccccc2)CC(C)C)cnc2c(Cl)cccc12 (stereo not drawn) [Compound E-14, 2-benzyl-N-(8-chloro-4-methyl-3-quinolyl)-2,4-dimethyl-pentanamide]	≥ 80	≥ 80	≥ 80	≥ 80	124 to 126	–	≥ 80	–
C=C(Cl)CC(C)(Cc1ccccc1)C(=O)Nc1cnc2c(F)cccc2c1 (stereo not drawn) [Compound E-53, 2-benzyl-4-chloro-N-(8-fluoro-3-quinolyl)-2-methyl-pent-4-enamide]	≥ 80	≥ 80	≥ 80	≥ 80	148 to 150	≥ 80	≥ 80	≥ 80
CC(Cc1ccccc1)(CC1(F)CC1)C(=O)Nc1cnc2c(F)cccc2c1 (stereo not drawn) [Compound E-25, 2-benzyl-3-(1-fluorocyclopropyl)-N-(8-fluoro-3-quinolyl)-2-methyl-propanamide]	≥ 80	≥ 80	≥ 80	≥ 80	162 to 164	≥ 80	≥ 80	–
Cc1c(NC(=O)[C@@](C)(Cc2ccccc2)CC(F)(F)F)cnc2c(F)cccc12 [Compound F-14, (2S)-2-benzyl-4,4,4-trifluoro-N-(8-fluoro-4-methyl-3-quinolyl)-2-methyl-butanamide]	≥ 80	≥ 80	≥ 80	≥ 80	74 to 76	≥ 80	≥ 80	≥ 80
Cc1nc2c(F)cccc2cc1NC(=O)[C@@](C)(Cc1ccccc1)CC(C)C [Compound F-8, (2R)-2-benzyl-N-(8-fluoro-2-methyl-3-quinolyl)-2,4-dimethyl-pentanamide]	≥ 80	≥ 80	≥ 80	≥ 80	–	≥ 80	≥ 80	≥ 80
Cc1c(NC(=O)[C@](C)(Cc2ccccc2)CC(C)C)cnc2c(F)cccc12 [Compound F-3, (2S)-2-benzyl-N-(8-fluoro-4-methyl-3-quinolyl)-2,4-dimethyl-pentanamide]	≥ 80	≥ 80	≥ 80	≥ 80	–	–	≥ 80	≥ 80
Cc1c(NC(=O)C(C)(Cc2ccccc2)CC(F)(F)F)cnc2c(Cl)cccc12 (stereo not drawn) [Compound E-15, 2-benzyl-N-(8-chloro-4-methyl-3-quinolyl)-4,4,4-trifluoro-2-methyl-butanamide]	≥ 80	≥ 80	≥ 80	≥ 80	73 to 75	–	≥ 80	≥ 80
CC1(C[C@@](C)(Cc2ccccc2)C(=O)Nc2cnc3c(F)cccc3c2)CC1 [Compound F-10, (2S)-2-benzyl-N-(8-fluoro-3-quinolyl)-2-methyl-3-(1-methylcyclopropyl) propanamide]	≥ 80	≥ 80	≥ 80	≥ 80	58 to 60	–	≥ 80	≥ 80
C=C(C)CC(C)(Cc1cccc(F)c1)C(=O)Nc1cnc2c(F)cccc2c1 (stereo not drawn) [Compound E-11, 2-[(3-fluorophenyl)methyl]-N-(8-fluoro-3-quinolyl)-2,4-dimethyl-pent-4-enamide]	≥ 80	≥ 80	≥ 80	≥ 80	125 to 127	–	≥ 80	≥ 80
CC(Cc1ccccc1)(CC(F)(F)Cl)C(=O)Nc1cnc2c(F)cccc2c1 (stereo not drawn) [Compound E-56, 2-benzyl-4-chloro-4,4-difluoro-N-(8-fluoro-3-quinolyl)-2-methyl-butanamide]	≥ 80	≥ 80	≥ 80	≥ 80	–	≥ 80	≥ 80	≥ 80
CC(Cc1cccc(F)c1)(CC(F)(F)F)C(=O)Nc1cnc2c(F)cccc2c1 (stereo not drawn) [Compound E-22, 4,4,4-trifluoro-2-[(3-fluorophenyl)methyl]-N-(8-fluoro-3-quinolyl)-2-methyl-butanamide]	≥ 80	≥ 80	≥ 80	≥ 80	–	–	≥ 80	≥ 80
Cc1nc2c(F)cccc2cc1NC(=O)[C@](C)(Cc1ccccc1)CC(C)C [Compound F-7, (2S)-2-benzyl-N-(8-fluoro-2-methyl-3-quinolyl)-2,4-dimethyl-pentanamide]	≥ 80	≥ 80	≥ 80	≥ 80	–	≥ 80	≥ 80	≥ 80
C[C@](Cc1ccccc1)(CC(F)(F)F)C(=O)Nc1cnc2c(F)c(F)ccc2c1 [Compound F-15, (2S)-2-benzyl-N-(7,8-difluoro-3-quinolyl)-4,4,4-trifluoro-2-methyl-butanamide]	≥ 80	≥ 80	≥ 80	≥ 80	–	–	≥ 80	≥ 80
C=C(C)CC(C)(Cc1cccc(F)c1)C(=O)Nc1cc2cccc(F)c2nc1C (stereo not drawn) [Compound E-12, N-(8-fluoro-2-methyl-3-quinolyl)-2-[(3-fluorophenyl)methyl]-2,4-dimethyl-pent-4-enamide]	≥ 80	≥ 80	≥ 80	≥ 80	124 to 126	–	≥ 80	≥ 80
C[C@](Cc1ccccc1)(CC(F)(F)F)C(=O)Nc1cnc2c(F)cccc2c1 (single isomer, unassigned) [Compound F-23]	≥ 80	≥ 80	≥ 80	≥ 80	–	≥ 80	≥ 80	≥ 80
Cc1nc2c(F)cccc2cc1NC(=O)C(C)(Cc1ccc(F)cc1)CC(F)(F)F (stereo not drawn) [Compound E-16, 4,4,4-trifluoro-N-(8-fluoro-2-methyl-3-quinolyl)-2-[(4-fluorophenyl)methyl]-2-methyl-butanamide]	≥ 80	≥ 80	≥ 80	≥ 80	–	–	≥ 80	–
